Assays:
large crabgrass = assay: Test F preemergence test; format: in vivo, Digitaria sanguinalis; conditions: scale 0 to 100
Summary of the method: (§1)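 Visual ratings relative to controls, taken after 14 to 21 days in a greenhouse. Test chemicals, formulated in a surfactant-containing non-phytotoxic solvent mixture, were applied preemergence to sown seeds or postemergence to sugarcane plants.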

Italian ryegrass = assay: Test F preemergence test; format: in vivo, Lolium multiflorum; conditions: scale 0 to 100; for Ryegrass, Italian plant response rating: 125 g ai/ha
Summary of the method: as §1

Surinam grass = assay: Test F preemergence test; format: in vivo, Brachiaria decumbens; conditions: scale 0 to 100; for Surinam Grass plant response rating: 125 g ai/ha
Summary of the method: as §1

johnsongrass = assay: Test F preemergence test; format: in vivo, Sorghum halepense; conditions: scale 0 to 100
Summary of the method: as §1

common ragweed = assay: Test F preemergence test; format: in vivo, Ambrosia elation; conditions: scale 0 to 100; for Ragweed plant response rating: 125 g ai/ha
Summary of the method: as §1

goosegrass = assay: Test F preemergence test; format: in vivo, Eleusine indica; conditions: scale 0 to 100
Summary of the method: as §1

rice = assay: Test C flooded paddy test; format: in vivo, Oryza sativa; conditions: Flood
Summary of the method: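 Under a constant 3 cm flood, test compounds went directly into the paddy water. Following 13 to 15 days of greenhouse growth, treated species and controls were compared by eye.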

Virginia dayflower = assay: Test F preemergence test; format: in vivo, Commelina virginica; conditions: scale 0 to 100
Summary of the method: as §1

broadleaf signalgrass = assay: Test F preemergence test; format: in vivo, Brachiaria platyphylla; conditions: scale 0 to 100; for Signalgrass plant response rating: 125 g ai/ha
Summary of the method: as §1

purple nutsedge = assay: Test F preemergence test; format: in vivo, Cyperus rotundus; conditions: scale 0 to 100
Summary of the method: as §1

naked crabgrass = assay: Test F preemergence test; format: in vivo, Digitaria nuda; conditions: scale 0 to 100
Summary of the method: as §1

pitted morningglory = assay: Test F preemergence test; format: in vivo, Ipomoea lacunosa; conditions: scale 0 to 100
Summary of the method: as §1

morningglory = assay: Test C pre-/postemergence test; format: in vivo, Ipomoea coccinea; conditions: for Plant response rating, Morningglory: 31 g ai/ha, scale 0 to 100 (0 no effect, 100 complete control)
Summary of the method: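 Seeds were planted and treated preemergence with test chemical in a non-phytotoxic solvent mixture containing surfactant. Postemergence applications of the same formulation went onto plants 2 to 18 cm tall (1- to 4-leaf stage). A dash marks no test result.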

kochia = assay: Test F preemergence test; format: in vivo, Kochia scoparia; conditions: scale 0 to 100
Summary of the method: as §1

annual bluegrass = assay: Test F preemergence test; format: in vivo, Poa annua; conditions: scale 0 to 100
Summary of the method: as §1

bermudagrass = assay: Test F preemergence test; format: in vivo, Cynodon dactylon; conditions: scale 0 to 100
Summary of the method: as §1

[1] = 250 g ai/ha, scale 0 to 100, 0 no effect, 100 complete control, 13 to 15 days
[2] = 62 g ai/ha, Preemergence, scale 0 to 100

Structure (SMILES): Cc1cc[n+]([O-])c(S(=O)(=O)Cc2c(C(F)(F)F)nn(C)c2OCC(F)(F)F)c1 [Compound 31]
- Plant response rating, Crabgrass, Large (large crabgrass; 16 g ai/ha, preemergence): 30
- Crabgrass, Large plant response rating (large crabgrass; 125 g ai/ha, preemergence): 100
- Plant response rating, Crabgrass, Large (large crabgrass; Preemergence, 31 g ai/ha): 95
- Plant response rating, Ryegrass, Italian (Italian ryegrass; 16 g ai/ha, preemergence): 50
- Ryegrass, Italian plant response rating (Italian ryegrass; preemergence): 90
- Plant response rating, Ryegrass, Italian (Italian ryegrass; Preemergence, 62 g ai/ha): 90
- Plant response rating, Ryegrass, Italian (Italian ryegrass; Preemergence, 31 g ai/ha): 90
- Plant response rating, Surinam Grass (Surinam grass; 16 g ai/ha, preemergence): 20
- Surinam Grass plant response rating (Surinam grass; preemergence): 100
- Plant response rating, Surinam Grass (Surinam grass; Preemergence, 62 g ai/ha): 95
- Plant response rating, Surinam Grass (Surinam grass; Preemergence, 31 g ai/ha): 85
- Plant response rating, Johnsongrass (johnsongrass; 16 g ai/ha, preemergence): 40
- Johnsongrass plant response rating (johnsongrass; 62 g ai/ha, Preemergence): 100
- Johnsongrass plant response rating (johnsongrass; 125 g ai/ha, preemergence): 100
- Plant response rating, Johnsongrass (johnsongrass; Preemergence, 31 g ai/ha): 50
- Plant response rating, Ragweed (common ragweed; 16 g ai/ha, preemergence): 20
- Ragweed plant response rating (common ragweed; preemergence): 100
- Plant response rating, Ragweed (common ragweed; Preemergence, 62 g ai/ha): 90
- Plant response rating, Ragweed (common ragweed; Preemergence, 31 g ai/ha): 75
- Plant response rating, Goosegrass (goosegrass; 16 g ai/ha, preemergence): 50
- Goosegrass plant response rating (goosegrass; 62 g ai/ha, Preemergence): 100
- Goosegrass plant response rating (goosegrass; 125 g ai/ha, preemergence): 100
- Plant response rating, Goosegrass (goosegrass; Preemergence, 31 g ai/ha): 75
- Plant response rating, Rice (rice; 31 g ai/ha, scale 0 to 100 (0 no effect, 100 complete control)): 0
- Plant response rating, Rice (rice; 62 g ai/ha, scale 0 to 100, 0 no effect, 100 complete control, 13 to 15 days): 0
- Plant response rating, Rice (rice; 125 g ai/ha, scale 0 to 100, 0 no effect, 100 complete control, 13 to 15 days): 60
- Plant response rating, Rice (rice; [1]): 70
- Plant response rating, Dayflower (Virginia dayflower; 16 g ai/ha, preemergence): 30
- Dayflower plant response rating (Virginia dayflower; 62 g ai/ha, Preemergence): 100
- Dayflower plant response rating (Virginia dayflower; 125 g ai/ha, preemergence): 100
- Plant response rating, Dayflower (Virginia dayflower; Preemergence, 31 g ai/ha): 65
- Plant response rating, Signalgrass (broadleaf signalgrass; 16 g ai/ha, preemergence): 35
- Signalgrass plant response rating (broadleaf signalgrass; preemergence): 98
- Plant response rating, Signalgrass (broadleaf signalgrass; Preemergence, 62 g ai/ha): 90
- Plant response rating, Signalgrass (broadleaf signalgrass; Preemergence, 31 g ai/ha): 60
- Plant response rating, Purple Nutsedge (purple nutsedge; 16 g ai/ha, preemergence): 40
- Purple Nutsedge plant response rating (purple nutsedge; 62 g ai/ha, Preemergence): 70
- Purple Nutsedge plant response rating (purple nutsedge; 125 g ai/ha, preemergence): 100
- Plant response rating, Purple Nutsedge (purple nutsedge; Preemergence, 31 g ai/ha): 50
- Plant response rating, Crabgrass, Naked (naked crabgrass; 16 g ai/ha, preemergence): 75
- Crabgrass, Naked plant response rating (naked crabgrass; 62 g ai/ha, Preemergence): 100
- Crabgrass, Naked plant response rating (naked crabgrass; 125 g ai/ha, preemergence): 100
- Plant response rating, Crabgrass, Naked (naked crabgrass; Preemergence, 31 g ai/ha): 85
- Plant response rating, Morningglory (pitted morningglory; 16 g ai/ha, preemergence): 0
- Morningglory plant response rating (pitted morningglory; 62 g ai/ha, Preemergence): 60
- Morningglory plant response rating (pitted morningglory; 125 g ai/ha, preemergence): 98
- Plant response rating, Morningglory (pitted morningglory; Preemergence, 31 g ai/ha): 20
- Morningglory plant response rating (morningglory; [2]): 100
- Plant response rating, Morningglory (morningglory; Preemergence): 85
- Plant response rating, Kochia (kochia; 16 g ai/ha, preemergence): 0
- Kochia plant response rating (kochia; 62 g ai/ha, Preemergence): 65
- Kochia plant response rating (kochia; 125 g ai/ha, preemergence): 100
- Plant response rating, Kochia (kochia; Preemergence, 31 g ai/ha): 0
- Plant response rating, Bluegrass (annual bluegrass; 16 g ai/ha, preemergence): 35
- Bluegrass plant response rating (annual bluegrass; 62 g ai/ha, Preemergence): 75
- Bluegrass plant response rating (annual bluegrass; 125 g ai/ha, preemergence): 90
- Plant response rating, Bluegrass (annual bluegrass; Preemergence, 31 g ai/ha): 65
- Plant response rating, Bermudagrass (bermudagrass; 16 g ai/ha, preemergence): 20
- Bermudagrass plant response rating (bermudagrass; 62 g ai/ha, Preemergence): 100
- Bermudagrass plant response rating (bermudagrass; 125 g ai/ha, preemergence): 100
- Plant response rating, Bermudagrass (bermudagrass; Preemergence, 31 g ai/ha): 75

Structure (SMILES): CC(Oc1c(C[S+]([O-])c2cccc[n+]2[O-])c(C(F)(F)F)nn1C)C(F)(F)F (stereo not shown) [Compound 77]
- Plant response rating, Crabgrass, Large (large crabgrass; 16 g ai/ha, preemergence): 0
- Crabgrass, Large plant response rating (large crabgrass; 62 g ai/ha, Preemergence): 95
- Crabgrass, Large plant response rating (large crabgrass; 125 g ai/ha, preemergence): 100
- Plant response rating, Crabgrass, Large (large crabgrass; Preemergence, 31 g ai/ha): 85
- Plant response rating, Ryegrass, Italian (Italian ryegrass; 16 g ai/ha, preemergence): 0
- Ryegrass, Italian plant response rating (Italian ryegrass; preemergence): 100
- Plant response rating, Ryegrass, Italian (Italian ryegrass; Preemergence, 62 g ai/ha): 90
- Plant response rating, Ryegrass, Italian (Italian ryegrass; Preemergence, 31 g ai/ha): 40
- Plant response rating, Surinam Grass (Surinam grass; 16 g ai/ha, preemergence): 0
- Surinam Grass plant response rating (Surinam grass; preemergence): 98
- Plant response rating, Surinam Grass (Surinam grass; Preemergence, 62 g ai/ha): 95
- Plant response rating, Surinam Grass (Surinam grass; Preemergence, 31 g ai/ha): 70
- Plant response rating, Johnsongrass (johnsongrass; 16 g ai/ha, preemergence): 0
- Johnsongrass plant response rating (johnsongrass; 62 g ai/ha, Preemergence): 85
- Johnsongrass plant response rating (johnsongrass; 125 g ai/ha, preemergence): 100
- Plant response rating, Johnsongrass (johnsongrass; Preemergence, 31 g ai/ha): 75
- Plant response rating, Ragweed (common ragweed; 16 g ai/ha, preemergence): 0
- Ragweed plant response rating (common ragweed; preemergence): 98
- Plant response rating, Ragweed (common ragweed; Preemergence, 62 g ai/ha): 65
- Plant response rating, Goosegrass (goosegrass; 16 g ai/ha, preemergence): 20
- Goosegrass plant response rating (goosegrass; 62 g ai/ha, Preemergence): 100
- Goosegrass plant response rating (goosegrass; 125 g ai/ha, preemergence): 100
- Plant response rating, Goosegrass (goosegrass; Preemergence, 31 g ai/ha): 85
- Plant response rating, Rice (rice; 62 g ai/ha, scale 0 to 100 (0 no effect, 100 complete control)): 30
- Plant response rating, Rice (rice; [1]): 70
- Plant response rating, Dayflower (Virginia dayflower; 16 g ai/ha, preemergence): 0
- Dayflower plant response rating (Virginia dayflower; 62 g ai/ha, Preemergence): 0
- Dayflower plant response rating (Virginia dayflower; 125 g ai/ha, preemergence): 100
- Plant response rating, Dayflower (Virginia dayflower; Preemergence, 31 g ai/ha): 0
- Plant response rating, Signalgrass (broadleaf signalgrass; 16 g ai/ha, preemergence): 0
- Signalgrass plant response rating (broadleaf signalgrass; preemergence): 90
- Plant response rating, Signalgrass (broadleaf signalgrass; Preemergence, 62 g ai/ha): 75
- Plant response rating, Signalgrass (broadleaf signalgrass; Preemergence, 31 g ai/ha): 25
- Plant response rating, Purple Nutsedge (purple nutsedge; 16 g ai/ha, preemergence): 0
- Purple Nutsedge plant response rating (purple nutsedge; 125 g ai/ha, preemergence): 75
- Plant response rating, Purple Nutsedge (purple nutsedge; Preemergence, 31 g ai/ha): 60
- Plant response rating, Crabgrass, Naked (naked crabgrass; 16 g ai/ha, preemergence): 0
- Crabgrass, Naked plant response rating (naked crabgrass; 62 g ai/ha, Preemergence): 90
- Crabgrass, Naked plant response rating (naked crabgrass; 125 g ai/ha, preemergence): 100
- Plant response rating, Crabgrass, Naked (naked crabgrass; Preemergence, 31 g ai/ha): 75
- Plant response rating, Morningglory (pitted morningglory; 16 g ai/ha, preemergence): 0
- Morningglory plant response rating (pitted morningglory; 62 g ai/ha, Preemergence): 60
- Morningglory plant response rating (pitted morningglory; 125 g ai/ha, preemergence): 90
- Plant response rating, Morningglory (pitted morningglory; Preemergence, 31 g ai/ha): 35
- Morningglory plant response rating (morningglory; [2]): 65
- Morningglory plant response rating (morningglory; 125 g ai/ha, preemergence, scale 0 (no effect) to 100 (complete control)): 100
- Plant response rating, Morningglory (morningglory; Preemergence): 60
- Morningglory plant response rating (morningglory; preemergence, 250 g ai/ha, scale 0 (no effect) to 100 (complete control)): 100
- Plant response rating, Kochia (kochia; 16 g ai/ha, preemergence): 0
- Kochia plant response rating (kochia; 62 g ai/ha, Preemergence): 75
- Kochia plant response rating (kochia; 125 g ai/ha, preemergence): 100
- Plant response rating, Kochia (kochia; Preemergence, 31 g ai/ha): 0
- Plant response rating, Bluegrass (annual bluegrass; 16 g ai/ha, preemergence): 0
- Bluegrass plant response rating (annual bluegrass; 62 g ai/ha, Preemergence): 0
- Bluegrass plant response rating (annual bluegrass; 125 g ai/ha, preemergence): 75
- Plant response rating, Bluegrass (annual bluegrass; Preemergence, 31 g ai/ha): 0
- Plant response rating, Bermudagrass (bermudagrass; 16 g ai/ha, preemergence): 0
- Bermudagrass plant response rating (bermudagrass; 62 g ai/ha, Preemergence): 80
- Bermudagrass plant response rating (bermudagrass; 125 g ai/ha, preemergence): 95
- Plant response rating, Bermudagrass (bermudagrass; Preemergence, 31 g ai/ha): 30

Source: patent US20100298141A1, “SUBSTITUTED PYRIDINE N-OXIDE HERBICIDES” (E. I. DU PONT DE NEMOURS AND COMPANY, priority 2007, published 2010)
